Assays:
[1] = biological target: T1, c-KIT VVDV kinase (Homo sapiens, UniProt P10721, D816V/DEL559-560); assay: cKIT-VVDV kinase Assay; format: biochemical; settings: enzymatic assay; V559+V560 deletions and D816V mutation
T1 construct: This construct contains residues T544-V976 of cKit; GST (N); TEV cleavage site (internal); purchased deCODE Biostructures
Experimental: In this assay, the oxidation of NADH (measured by decrease in absorbance at 340 nm) was continuously monitored spectrophotometrically. […] The inhibition reaction was started by mixing serial diluted test compound with the above reaction mixture. The absorption at 340 nm was monitored continuously for 5 hours at 30 °C on Synergy 2 plate reader (BioTech). […] The protein construct was prepared by deCODE Biostructures using procedures known in the art. […] This construct is identical to Seq ID no.

[2] = biological target: T2, c-KIT D816V kinase (Homo sapiens, UniProt P10721, D816V); assay: c-KIT D816V kinase Assay; format: biochemical; settings: enzymatic assay, ATP 200 uM
T2 construct: residues T544-V976 with N-terminal GST fusion; purchased deCODE Biostructures
Procedure, shortened: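 Coupled assay in which NADH oxidation was tracked as decreasing absorbance at 340 nm, continuously for 5 hours at 30 °C after adding serially diluted compound. Enzyme: cKit residues T544-V976 with N-terminal tag, GST fusion and TEV cleavage site.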

[3] = biological target: c-KIT kinase (Homo sapiens, UniProt P10721); assay: c-KIT kinase Assay; format: biochemical; set-up: cKIT residues T544-V976; GST (N); TEV cleavage site (internal); purchased deCODE Biostructures; settings: enzymatic assay, ATP 200 µM; read-out: KIT (wt) IC50
Procedure, shortened: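 Activity of wild-type human c-KIT kinase was followed as NADH oxidation, read as falling absorbance at 340 nm on a Synergy 2 plate reader (BioTeK) for 2 hours at 30 °C. Rates from the 0 to 1 h window were compared with an uninhibited control to give percent inhibition. IC50 values were fitted in GraphPad Prism across a range of inhibitor concentrations.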

[4] = biological target: T3, c-KIT T670I kinase (Homo sapiens, UniProt P10721, T670I); assay: c-KIT T670I kinase assay; format: biochemical; settings: enzymatic assay
T3 construct: The construct contains residues T544-V976 of cKit; GST (N); TEV cleavage site (internal); purchased deCODE Biostructures
Procedure, shortened: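 Coupled spectrophotometric assay following NADH oxidation as absorbance decrease at 340 nm, monitored continuously for 5 h at 30 °C after adding serially diluted compound. Enzyme is a cKit construct with N-terminal tag, GST fusion and TEV site, carrying the T670I mutation.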

[5] = tested on: Phospho-KIT (Tyr719); assay: GIST48 KIT Western Blot; format: cell-based; settings: GIST48 cells, 4 hours, serum-free medium; read-out: pKIT suppression by western blot analysi GIST48
Experimental: (§1) GIST48, GIST430, and GIST882 cells were obtained from J. Fletcher (Brigham and Women's Hospital, Boston, MA). GIST T1 cells were obtained from B. Rubin (Cleveland Clinic, Cleveland, OH) and Professor Takahiro Taguchi (Kochi Medical School, Nankoku, Kochi, Japan). […] GIST430 cells were grown in Ham's F10 medium supplemented with 15% characterized fetal bovine serum (Invitrogen, Carlsbad, CA), 30 mg/L bovine pituitary extract (BD Biosciences, San Jose, CA), 0.5% Mito+ serum extender (BD Biosciences, San Jose, CA), 1 unit/mL penicillin G, 1 µg/ml streptomycin, and 0.29 mg/mL L-glutamine at 37 °C, 5%CO2, 95% humidity. GIST T1 cells were grown in DMEM medium supplemented with 10% characterized fetal bovine serum (Invitrogen, Carlsbad, CA), 1 unit/mL penicillin G, 1 µg/ml streptomycin, and 0.29 mg/mL L-glutamine at 37 °C, 5% CO2, and 95% humidity.
(§2) Two hundred fifty thousand cells were added per well in a 24-well tissue-culture treated plate. […] Medium was aspirated, cells were washed with PBS, and serum-free RPMI1640 medium was added. […] Cells were washed with PBS, then lysed. Cell lysates were separated by SDS-PAGE and transferred to PVDF. Phospho-KIT (Tyr719) was detected using an antibody from Cell Signaling Technology (Beverly, MA), ECL Plus detection reagent (GE Healthcare, Piscataway, NJ) and a Molecular Devices Storm 840 phosphorimager in fluorescence mode. Blots were stripped and probed for total KIT using an antibody from Santa Cruz Biotech (Santa Cruz, CA). IC50 values were calculated using Prism software (Graphpad, San Diego, CA).

[6] = tested on: Phospho-KIT (Tyr719); assay: GIST430 KIT Western Blot; format: cell-based; settings: GIST430 cells, 4 hours, serum-free medium; read-out: pKIT suppression by western blot analysi GIST430
Experimental: as §1
as §2, with “One” for “Two”, “Ham's F10” for “RPMI1640”

[7] = biological target: T4, c-KIT V654A kinase (Homo sapiens, UniProt P10721, V654A); assay: c-KIT V654A Kinase Assay; format: biochemical; settings: enzymatic assay, ATP 200 µM
T4 construct: residues T544-V976 with N-terminal GST fusion; purchased deCODE Biostructures
Procedure, shortened: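 Construct: cKIT residues T544–V976 with N-terminal tag, GST fusion and TEV site. Reaction started by adding serially diluted compound to the enzyme mixture; NADH oxidation, coupled to kinase turnover, followed as the decrease in A340 for 6 h at 30 °C.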

[8] = biological target: T5, c-KIT D816H kinase (Homo sapiens, UniProt P10721, D816H); assay: c-KIT D816H Kinase Assay; format: biochemical; settings: enzymatic assay, ATP 200 µM
T5 construct: The construct contains residues T544-V976 of cKit; GST (N); TEV cleavage site (internal); purchased deCODE Biostructures
Procedure, shortened: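 Coupled spectrophotometric assay following NADH oxidation as absorbance decrease at 340 nm, monitored continuously for 6 hours at 30 °C after adding serially diluted compound. Enzyme: mutant cKit construct with N-terminal tag, GST fusion and TEV cleavage site.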

[9] = biological target: T6, Phospho-KIT (Tyr719) (Homo sapiens, UniProt P10721, K642E); assay: GIST882 KIT Western Blot; format: cell-based; settings: GIST882 cells, 4 hours, serum-free medium; read-out: pKIT suppression by western blot analysi GIST 882
T6 construct: endogenous in cells; host or cells: GIST882
Experimental: as §1, §2

T4 sequence (P10721 544-976 V654A): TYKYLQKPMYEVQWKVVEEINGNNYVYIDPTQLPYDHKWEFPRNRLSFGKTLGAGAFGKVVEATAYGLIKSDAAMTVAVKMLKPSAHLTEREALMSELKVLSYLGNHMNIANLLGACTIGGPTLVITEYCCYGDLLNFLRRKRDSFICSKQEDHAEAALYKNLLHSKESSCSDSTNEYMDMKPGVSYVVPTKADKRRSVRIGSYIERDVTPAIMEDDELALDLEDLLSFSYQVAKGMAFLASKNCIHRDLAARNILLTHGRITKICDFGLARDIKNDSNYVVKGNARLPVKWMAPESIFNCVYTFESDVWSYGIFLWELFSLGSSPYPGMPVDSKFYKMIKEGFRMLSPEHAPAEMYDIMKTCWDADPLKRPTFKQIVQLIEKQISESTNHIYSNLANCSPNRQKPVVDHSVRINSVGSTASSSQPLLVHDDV
T2 sequence (P10721 544-976 D816V): as the sequence (P10721 544-976 V654A) above, with A111V, D273V counted along it
c-KIT kinase, sequence (P10721 544-976): as the sequence (P10721 544-976 V654A) above, with A111V counted along it
T3 sequence (P10721 544-976 T670I): as the sequence (P10721 544-976 V654A) above, with A111V, T127I counted along it
T5 sequence (P10721 544-976 D816H): as the sequence (P10721 544-976 V654A) above, with A111V, D273H counted along it
T1 sequence (P10721 with tags, fused parts or gaps DEL559-560/D816V): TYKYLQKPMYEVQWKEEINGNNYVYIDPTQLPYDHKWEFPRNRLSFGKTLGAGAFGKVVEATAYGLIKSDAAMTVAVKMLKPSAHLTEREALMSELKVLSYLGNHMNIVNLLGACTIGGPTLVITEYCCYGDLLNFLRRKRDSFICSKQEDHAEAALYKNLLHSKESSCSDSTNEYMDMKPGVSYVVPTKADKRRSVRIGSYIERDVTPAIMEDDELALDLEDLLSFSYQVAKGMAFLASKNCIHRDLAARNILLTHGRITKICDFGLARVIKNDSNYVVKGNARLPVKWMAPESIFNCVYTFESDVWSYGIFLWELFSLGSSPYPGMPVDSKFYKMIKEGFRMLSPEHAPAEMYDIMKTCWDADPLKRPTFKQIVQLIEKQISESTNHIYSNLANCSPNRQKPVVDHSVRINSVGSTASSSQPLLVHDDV
T6 sequence (P10721 26-976 K642E): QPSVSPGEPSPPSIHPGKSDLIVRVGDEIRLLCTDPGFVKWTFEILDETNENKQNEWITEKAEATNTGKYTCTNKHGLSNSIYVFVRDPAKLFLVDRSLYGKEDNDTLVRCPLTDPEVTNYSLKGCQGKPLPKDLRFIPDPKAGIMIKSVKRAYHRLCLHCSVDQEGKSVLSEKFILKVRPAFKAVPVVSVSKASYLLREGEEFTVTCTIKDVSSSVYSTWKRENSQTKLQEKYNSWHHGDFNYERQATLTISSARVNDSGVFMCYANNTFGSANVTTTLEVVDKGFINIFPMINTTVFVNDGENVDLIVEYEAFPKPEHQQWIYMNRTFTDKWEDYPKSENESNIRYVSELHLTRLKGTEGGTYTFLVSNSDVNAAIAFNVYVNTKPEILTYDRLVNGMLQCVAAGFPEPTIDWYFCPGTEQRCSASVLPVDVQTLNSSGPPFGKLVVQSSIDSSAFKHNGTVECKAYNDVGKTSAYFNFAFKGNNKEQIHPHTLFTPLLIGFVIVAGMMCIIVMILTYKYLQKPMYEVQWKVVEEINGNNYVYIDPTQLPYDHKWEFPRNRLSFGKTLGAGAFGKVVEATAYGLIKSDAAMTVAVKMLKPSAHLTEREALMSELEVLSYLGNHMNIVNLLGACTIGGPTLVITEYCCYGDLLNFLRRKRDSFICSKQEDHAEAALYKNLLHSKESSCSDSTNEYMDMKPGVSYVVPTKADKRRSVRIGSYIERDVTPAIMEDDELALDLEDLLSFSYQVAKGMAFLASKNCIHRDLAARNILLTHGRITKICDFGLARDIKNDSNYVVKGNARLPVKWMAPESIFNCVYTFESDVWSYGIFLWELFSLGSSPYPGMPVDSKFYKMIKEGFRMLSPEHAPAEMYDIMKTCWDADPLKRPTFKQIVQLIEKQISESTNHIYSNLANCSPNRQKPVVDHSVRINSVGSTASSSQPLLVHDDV

Compound	IC50 [1]	IC50 [2]	IC50 [3]	IC50 [4]	IC50 [5]	IC50 [6]	IC50 [7]	IC50 [8]	IC50 [9]
CCn1c(=O)c(-c2ccc(F)c(NC(=O)Nc3cccc(C#N)c3)c2)cc2cnc(NC)cc21 [Example 12, 1-(3-cyanophenyl)-3-(5-(1-ethyl-7-(methylamino)-2-oxo-1,2-dihydro-1,6-naphthyridin-3-yl)-2-fluorophenyl)urea]	100 to 1000 nM	> 1000 nM	–	–	–	–	–	–	–
CNc1cc2c(cn1)cc(-c1cc(NC(=O)Nc3cccc(F)c3F)c(F)cc1Cl)c(=O)n2C [Example 10, 1-(4-chloro-2-fluoro-5-(1-methyl-7-(methylamino)-2-oxo-1,2-dihydro-1,6-naphthyridin-3-yl)phenyl)-3-(2,3-difluorophenyl)urea]	10 to 100 nM	10 to 100 nM	–	10 to 100 nM	–	–	–	–	–
CCn1c(=O)c(-c2cc(NC(=O)Nc3cccc(C#N)c3)c(F)cc2F)cc2cnc(NC)cc21 [Example 18, 1-(3-cyanophenyl)-3-(5-(1-ethyl-7-(methylamino)-2-oxo-1,2-dihydro-1,6-naphthyridin-3-yl)-2,4-difluorophenyl)urea]	10 to 100 nM	100 to 1000 nM	< 10 nM	10 to 100 nM	–	–	–	–	–
CNc1cc2c(cn1)cc(-c1cc(NC(=O)Nc3cccc(C#N)c3)c(F)cc1Cl)c(=O)n2C [Example 9, 1-(4-chloro-2-fluoro-5-(1-methyl-7-(methylamino)-2-oxo-1,2-dihydro-1,6-naphthyridin-3-yl)phenyl)-3-(3-cyanophenyl)urea]	10 to 100 nM	10 to 100 nM	< 10 nM	10 to 100 nM	–	–	–	–	–
CNc1cc2c(cn1)cc(-c1cc(NC(=O)Nc3cccc4ccccc34)c(F)cc1Cl)c(=O)n2C [Example 8, 1-(4-chloro-2-fluoro-5-(1-methyl-7-(methylamino)-2-oxo-1,2-dihydro-1,6-naphthyridin-3-yl)phenyl)-3-(naphthalen-1-yl)urea]	100 to 1000 nM	10 to 100 nM	–	10 to 100 nM	–	–	–	–	–
CNc1cc2c(cn1)cc(-c1ccc(F)c(NC(=O)Nc3ccccc3)c1)c(=O)n2C(C)C [Example 5, 1-(2-fluoro-5-(1-isopropyl-7-(methylamino)-2-oxo-1,2-dihydro-1,6-naphthyridin-3-yl)phenyl)-3-phenylurea]	100 to 1000 nM	100 to 1000 nM	–	–	–	–	–	–	–
CCn1c(=O)c(-c2ccc(F)c(NC(=O)Nc3cccc4ccccc34)c2)cc2cnc(NC)cc21 [Example 2, 1-(5-(1-ethyl-7-(methylamino)-2-oxo-1,2-dihydro-1,6-naphthyridin-3-yl)-2-fluorophenyl)-3-(naphthalen-1-yl)urea]	100 to 1000 nM	100 to 1000 nM	–	< 10 nM	–	–	–	–	–
CNc1cc2c(cn1)cc(-c1cc(NC(=O)Nc3csc4ccccc34)c(F)cc1C)c(=O)n2C [Example 13, 1-(benzo[b]thiophen-3-yl)-3-(2-fluoro-4-methyl-5-(1-methyl-7-(methylamino)-2-oxo-1,2-dihydro-1,6-naphthyridin-3-yl)phenyl)urea]	< 10 nM	10 to 100 nM	–	10 to 100 nM	–	–	–	–	–
CNc1cc2c(cn1)cc(-c1cc(NC(=O)Nc3ccccc3)c(F)cc1Cl)c(=O)n2C [Example 7, 1-(4-chloro-2-fluoro-5-(1-methyl-7-(methylamino)-2-oxo-1,2-dihydro-1,6-naphthyridin-3-yl)phenyl)-3-phenylurea]	10 to 100 nM	10 to 100 nM	–	10 to 100 nM	–	–	–	–	–

Next, values leading:

IC50 [1]	IC50 [2]	IC50 [3]	IC50 [4]	IC50 [5]	IC50 [6]	IC50 [7]	IC50 [8]	IC50 [9]	Compound
10 to 100 nM	< 10 nM	< 10 nM	–	–	–	–	–	–	CCn1c(=O)c(-c2cc(NC(=O)Nc3csc4ccccc34)c(F)cc2F)cc2cnc(NC)cc21 [Example 19, 1-(benzo[b]thiophen-3-yl)-3-(5-(1-ethyl-7-(methylamino)-2-oxo-1,2-dihydro-1,6-naphthyridin-3-yl)-2,4-difluorophenyl)urea]
–	10 to 100 nM	< 10 nM	10 to 100 nM	10 to 100 nM	10 to 100 nM	100 to 1000 nM	10 to 100 nM	10 to 100 nM	CCn1c(=O)c(-c2cc(NC(=O)Nc3ccccc3)c(F)cc2Cl)cc2cnc(NC(=O)N3CC[C@@H](N(C)C)C3)cc21 [Example 84, (R)-N-(3-(2-chloro-4-fluoro-5-(3-phenylureido)phenyl)-1-ethyl-2-oxo-1,2-dihydro-1,6-naphthyridin-7-yl)-3-(dimethylamino)pyrrolidine-1-carboxamide]
> 1000 nM	> 1000 nM	10 to 100 nM	–	–	–	–	–	–	CCn1c(=O)c(-c2c(Cl)ccc(NC(=O)Nc3ccccc3)c2F)cc2cnc(NC)cc21 [Example 26, 1-(4-chloro-3-(1-ethyl-7-(methylamino)-2-oxo-1,2-dihydro-1,6-naphthyridin-3-yl)-2-fluorophenyl)-3-phenylurea]
> 1000 nM	10 to 100 nM	< 10 nM	10 to 100 nM	–	–	10 to 100 nM	10 to 100 nM	–	CCn1c(=O)c(-c2cc(NC(=O)Nc3cccc(F)c3)c(F)cc2C)cc2cnc(NC3CC3)cc21 [Example 45, 1-(5-(7-(cyclopropylamino)-1-ethyl-2-oxo-1,2-dihydro-1,6-naphthyridin-3-yl)-2-fluoro-4-methylphenyl)-3-(3-fluorophenyl)urea]
100 to 1000 nM	10 to 100 nM	< 10 nM	100 to 1000 nM	–	10 to 100 nM	< 10 nM	10 to 100 nM	–	CCn1c(=O)c(-c2cc(NC(=O)Nc3ccccc3)ccc2Cl)cc2cnc(NC)cc21 [Example 33, 1-(4-chloro-3-(1-ethyl-7-(methylamino)-2-oxo-1,2-dihydro-1,6-naphthyridin-3-yl)phenyl)-3-phenylurea]
10 to 100 nM	10 to 100 nM	< 10 nM	100 to 1000 nM	100 to 1000 nM	100 to 1000 nM	10 to 100 nM	10 to 100 nM	–	CCn1c(=O)c(-c2cc(NC(=O)Nc3ccccc3)c(F)cc2F)cc2cnc(NCCOC)cc21 [Example 36, 1-(5-(1-ethyl-7-(2-methoxyethylamino)-2-oxo-1,2-dihydro-1,6-naphthyridin-3-yl)-2,4-difluorophenyl)-3-phenylurea]
